Values quoted from earlier work as cited in patent publication US20060235005A1, “Use of phosphodiesterase 5 (PDE5) inhibitors in the treatment of schizophrenia” (Oak Labs, Corp., priority 2005, published 2006).
Like-named read-outs stand apart in the source and are kept apart here.

Legend:
[1] = single oral dose of 10, 20 and 40 mg
[2] = tested on: anesthetized dogs; settings: intravenous 1-300 μg kg-1, anesthetized dogs
[3] = tested on: rats; settings: oral 0.3-1.0 mg kg-1, rats
[4] = tested on: rats; settings: 3 mg/kg and 10 mg/kg p.o., at 24 hours
[5] = tested on: rats
[6] = tested on: hyperammonemic rats; settings: chronic oral treatment for 28 days
[7] = tested on: cortical cGMP levels; settings: subchronic administration, rats
[8] = tested on: mice; settings: 3 mg/kg, at 48 hours
[9] = tested on: male schizophrenia patients
[10] = tested on: mice; settings: 2, 4, & 8 mg/kg
[11] = tested on: middle cerebral artery occlusion; settings: 2-5 mg/kg daily for seven days, vs vehicle
[12] = tested on: women affected by arousal disorders
[13] = tested on: men with cardiovascular disease
[14] = tested on: healthy young men; settings: 100 mg
[15] = tested on: men with erectile dysfunction; settings: phase III, including patients with cardiovascular diseases, vs placebo
[16] = in vivo
[17] = tested on: healthy subjects; settings: single 20-mg dose
[18] = tested on: patients with schizophrenia; settings: compared with haloperidol
[19] = tested on: schizophrenia patients; settings: 8-week trial
[20] = tested on: animal models

CCCc1nc(C)c2c(=O)[nH]c(-c3cc(S(=O)(=O)N4CCN(CC)CC4)ccc3OCC)nn12 [vardenafil]
Tmax [1]: 0.7 to 0.9 h

CCCOc1ccc(S(=O)(=O)NCCC2CCCN2C)cc1-c1nc2c(CCC)nn(C)c2c(=O)[nH]1 (centres unmarked) [DA-8159]
intracavernosal pressure [2]: potentiated an increase in intracavernosal pressure in a dose-related manner
erectogenic activity [3]: erectogenic activity

CCCc1nn(C)c2c(=O)[nH]c(-c3cc(S(=O)(=O)N4CCN(C)CC4)ccc3OCC)nc12 [sildenafil]
retention of object recognition task [4]: significantly improved retention
effect on behavioral effects of dopamine agonists ([5]; 10 mg/kg): antagonized behavioral effects
effect on behavioral effects of dopamine agonists ([5]; single dose 1 mg/kg): enhanced behavioral effects
cGMP levels in brains [6]: normalized cGMP levels
performance on learning tasks [6]: restored performance on learning tasks
cortical cGMP levels [7]: increase cortical cGMP levels
retention of passive avoidance task [8]: improved retention
terminal half-life (in vivo): 3 to 5 h
absolute bioavailability (oral administration): 40%
time to peak plasma concentration (Tmax) (oral, fasting state): 0.5 to 2 h
safety and efficacy for erectile dysfunction [9]: safe and effective
acquisition of maze learning [10]: dose-dependently improved acquisition
functional recovery (foot fault test and adhesive removal test) [11]: significantly greater functional recovery
cellular proliferation in the subventricular zone and dentate gyrus ([11]; bromodeoxyuridine labeling): greater cellular proliferation
sexual performance [12]: improve sexual performance
men with improved erectile function ([13]; men with ischemic heart disease): up to 70%
synergistic effect on blood pressure with antihypertensive agents ([13]; patients not taking organic nitrates, ACE inhibitors, adrenoceptor blockers, calcium channel blockers, diuretics): does not have a synergistic effect on blood pressure
actual performance (attention / recognition) [14]: did not significantly improve
event-related brain potentials (ERPs) patterns [14]: significantly affected

CN1CC(=O)N2[C@H](c3ccc4c(c3)OCO4)c3[nH]c4ccccc4c3C[C@@H]2C1=O [tadalafil]
incidence of adverse events [15]: no different from that in placebo-treated patients
maximum Tmax [16]: 2 h
change in heart rate, standing systolic or diastolic blood pressure [17]: no significant change

Cc1nc2n(c(=O)c1CCN1CCC(c3noc4cc(F)ccc34)CC1)CCCC2 [risperidone]
reduction in relapse rate [18]: 43%

N[C@@H]1CONC1=O [D-cycloserine]
cognitive deficits [19]: failed to improve cognitive deficits
tolerance for memory effects ([20]; after two weeks of daily dosing): tolerance for memory effects develops
learning and memory ([20]; single dose administration): improves learning and memory
